We go through three molecules from US20180021405A1, “NUTRITIONAL APPROACH TO THE CONTROL OF ANEMIA, DIABETES AND OTHER DISEASES OR CONDITIONS AND PREVENTION OF ASSOCIATED COMORBID STATES WITH THE USE OF ERGOTHIONEINE” (priority 2011, published 2018).

The conditions of series [1]: mushroom test meal, 8 g and 16 g mushroom powder; cited from earlier work.
A further series relates to Drosophila melanogaster. As to the kind of experiment: survival under Paraquat-induced oxidative stress. Type of series: in vivo. As to conditions: 10 mM Paraquat. The method, then:
The effect of Agaricus Blazei without enrichment, with Vitamin D2 enrichment, pure Vitamin D2 and control (vehicle for the delivery) on the survival rate of Drosophila melanogaster under Paraquat-induced oxidative stress condition was tested. The study focused on the control of Paraquat induced oxidative stress/biologic death. Paraquat is a very potent oxidative stress inducing chemical and causes death in animals and plants by the toxicity of released free radicals. Paraquat (10 mM concentration) (Sigma Aldrich) was used to chemically induce oxidative stress. Paraquat is the trade name for N,N′-dimethyl-4,4′-bipyridinium dichloride, a widely used herbicide. Paraquat, a viologen, is quick-acting and non-selective, killing green plant tissue on contact. It is also toxic to humans when swallowed. This is the most standard chemical used in experimental induction of oxidative stress using the Drosophila model system. It catalyzes the formation of reactive oxygen species (ROS). Paraquat will undergo redox cycling in vivo, gets reduced by an electron donor such NADPH, before being oxidized by an electron receptor such as dioxygen to produce superoxide, a major ROS.
The following materials and methods were utilized. Vials containing 10 mM Paraquat (from Sigma Aldrich) in 5 ml of 1.2% Low melting point Agarose medium were prepared. A strip of half moist filter paper was inserted in the medium (with the wet end in). Yeast paste containing 1% concentration (w/w) of the various test materials (see above) mixed to homogeneity was prepared. Yeast paste without drug was used as control. Uniform aliquot (˜300 mg) of yeast paste with or without the test material) was applied to vials in such a way that yeast paste was on the glass surface and covered the dry end (top) of the filter paper strip. Freshly enclosed wild type isogenized Canton-S males and females were collected and starved on 1% agar medium for 5-6 hours. Four males and females were transferred to the vial containing 10 mM Paraquat in LMP agarose medium and yeast paste with +/− test material (8 flies per vial). 6 vials were used per experiment. Vials with flies were placed horizontally in a tray. The experiment was conducted at 25 degrees C. temperature. Flies were transferred once in 2 days and the number of flies surviving at each transfer was recorded.

Series [2] concerns Alzheimer's disease mutant fruit fly (APP over-expression). As to the kind of experiment: survival and life span in Alzheimer's disease (AD) model flies. Also on record: species or system Drosophila. The conditions noted are these: in vivo.
From the text: Type of Model (with specific Drosophila model of neurodegeneration). The targeted over/ectopic expression of APP in the brain using a UAS promoter driven APP transgene, induced by a specific GAL4 trans-driver in the brain of a Drosophila model system, was used for this Example.
The AD strain lives only for a few days after their eclosion (birth) as opposed to 65 days or more for wild type normal strains.
We determined the extension of life span in the mutant strain for each test compound. We used a specific GAL4 driver that induces the APP gene in the central brain area at high levels (see above) and results in a fully penetrant lethality within a 2-3 weeks period.
For series [3], the system named is vitamin D-deficient dialysis patients. As to conditions: 81 patients; cited from earlier work.
For a further series, the system named is hemodialysis patients. The conditions noted are these: human, in vivo; cited from earlier work.

On to `C[N+](C)(C)[C@@H](Cc1c[nH]c(=S)[nH]1)C(=O)[O-]` [ET, L-Ergothioneine], for which, in series [1], the “bioavailability of ET from mushrooms” value is “bioavailable” and the “time of ET peak in red blood cells after mushroom consumption” value was 2 h.

For `C=C1CC[C@H](O)C/C1=C/C=C1\CCC[C@]2(C)[C@@H]([C@H](C)CCCC(C)C)CC[C@@H]12` [Vitamin D3, cholecalciferol], the “effect on survival under Paraquat-induced oxidative stress (words)” value in the series on Drosophila melanogaster was “no beneficial effect”. The “survival rate of AD flies relative to control” value in series [2] is given as “no such effect”.

Consider `C=C1CC[C@H](O)C/C1=C/C=C1\CCC[C@]2(C)[C@@H]([C@H](C)/C=C/[C@H](C)C(C)C)CC[C@@H]12` [pure Vitamin D2, Ergocalciferol], for which the “patients able to reach 25-D levels of 30 ng/mL or greater” value in series [3] is recorded as 44%. Further, in series [3], the “patients requiring less EPO with supplementation” value is reported as 57%. Also, the results for the “effect on survival under Paraquat-induced oxidative stress (words)” value in the series on Drosophila melanogaster, in the series on Drosophila melanogaster (listed as Vitamin D2) and with Drosophila melanogaster (listed as Vitamin D2 in its pure form) were “no effect”, “no beneficial effect” and “deleterious effect”, respectively. Further, the “survivability under Paraquat-induced oxidative stress” value in the series with Drosophila melanogaster (1% w/w in yeast paste, over 10 days, 25 degrees C) is listed as 13%+/−3%. For the same molecule, the “patients with a reduction in EPO dose after supplementation” value in the series with hemodialysis patients is on record as 64%. Further, the “survival rate of AD flies relative to control” value in series [2] is given as “no such effect”.
